# Measurements as given in patent publication US20060160906A1, “Polyamine analogs as therapeutic agents for ocular diseases” (priority 2004, published 2006).
# “Also recorded” adds a separate entry of the source.
# Tests used:
# [1] = test system: choroidal neovascularization (CNV) at Bruch's membrane rupture sites; test: Mouse model of laser-induced choroidal neovascularization (rupture of Bruch's membrane), CNV area on choroidal flat mounts; type: in vivo, C57BL/6J mice
# [2] = test system: subretinal neovascularization; test: Rhodopsin/VEGF transgenic mice, subretinal neovascularization; type: in vivo, rhodopsin/VEGF transgenic mice (V6 mice); conditions: periocular injection at P7, measured P21; 100 μg CGC-11144, 1 mg CGC-11047, 750 μg CGC-11093
# From the text: Transgenic mice (V6 mice) in which the rhodopsin promoter drives expression of VEGF165 in photoreceptors have onset of VEGF expression at post-natal day 7 (P7) and soon after begin to develop neovascularization originating from the deep capillary bed that grows through the photoreceptor layer into the subretinal space. (Okamoto N et al., Amer. J. Pathol. 151: 281-91 (1997); Tobe T et al., Invest. Ophthalmol. Vis. Sci. 39: 180-188 (1998)). Hemizygous transgene positive mice were given a periocular injection of 100 μg of CGC-11144 (n=3), 1 mg of CGC-11047 (n=3), 750 μg of CGC-11093 (n=3) or vehicle (n=7) at P7. At post-natal day 21 (P21), mice were euthanized and the amount of subretinal neovascularization was quantified as previously described (Tobe, ibid.). Briefly, mice were anesthetized, perfused with fluorescein-labeled dextran, and the number of neovascular lesions on the outer surface of the retina and their total area were measured on retinal flat mounts by image analysis as described in Example 1.
# [3] = test system: CNV lesions; test: TUNEL staining for apoptosis within CNV lesions; type: in vivo, C57BL/6 mice; conditions: periocular 200 μg on days 7 and 8 after laser
# Description: On days 7 and 8 after laser-induced rupture of Bruch's membrane, adult female C57BL/6 mice received a periocular injection of 0.2 mg of CGC-11144 or vehicle and then they were euthanized. Eyes were embedded in OCT and 10 μm serial sections were cut through CNV lesions and fixed with 1% paraformaldehyde for 10 minutes at room temperature. TUNEL staining was done using an ApopTag Fluorescein Red Kit (Intergen, Purchase, N.Y.) following the manufacturer's instructions. Adjacent sections were stained for GSA to visualize vascular cells on some sections; TUNEL staining was done to identify cell undergoing apoptosis on adjacent sections.
structure (smiles),measurement,setting,value
CCNCCCCNCCCCNCCCCNCCCCNC/C=C/CNCCCCNCCCCNCCCCNCCCCNCC.Cl.Cl.Cl.Cl.Cl.Cl.Cl.Cl.Cl.Cl [CGC-11144],area of CNV vs day 7 baseline and vehicle fellow eyes (regression),"[1]; daily periocular injections days 7 to 14, 200 μg CGC-11144, 100 μg DFMO, or both",significant reduction in CNV area; also recorded: significantly less
same,area of CNV vs controls (no injection or vehicle-injected fellow eye),[1]; intraocular 20 μg on days 0 and 7 after rupture,significantly less CNV than corresponding controls
same,decrease in area of CNV compared to vehicle-treated or untreated eyes,"[1]; intravitreous 20 μg on days 0 and 7 after rupture, measured day 14",approximately 40%
same,area of established CNV vs vehicle fellow eyes and vs 7 day baseline (regression),"[1]; intravitreous 20 μg on days 7 and 10, measured day 14",significantly smaller in area
same,size (area) of CNV lesions vs vehicle,"[1]; ip 10 mg/kg twice a week, 2 weeks after rupture of Bruch's membrane, 10 mg/kg","statistically significant reductions in the size of CNV lesions; also recorded: small, but significant reductions in CNV"
same,size (area) of CNV lesions vs vehicle,"[1]; ip 20 mg/kg twice a week, surviving mice, 20 mg/kg","small statistically significant reductions in CNV lesion size; also recorded: small, but significant reductions in CNV"
same,decrease in CNV area compared to vehicle-treated eyes,"[1]; periocular 200 μg 3 times a week, day 14",40%
same,area of established CNV vs vehicle fellow eyes and 7 day baseline (regression),"[1]; periocular 200 μg on days 7, 10 and 13, measured day 14",significant decrease in area of CNV; also recorded: significantly smaller
same,area of CNV vs controls (no injection or vehicle-injected fellow eye),"[1]; periocular 200 μg three times a week, day 14",significantly less CNV than corresponding controls
same,amount of CNV on day 14 vs vehicle (suppression),"[1]; single periocular injection at time of rupture, 200 μg CGC-11144, 2 mg CGC-11047, 1.5 mg CGC-11093",significantly reduced the amount of CNV
same,amount of CNV vs vehicle (duration of effect),"[1]; single periocular injection one week prior to rupture, 200 μg CGC-11144, 2 mg CGC-11047, 1.5 mg CGC-11093",significant reduction of the amount of CNV
same,amount of CNV vs vehicle (duration of effect),"[1]; single periocular injection two weeks prior to rupture, 200 μg CGC-11144, 2 mg CGC-11047, 1.5 mg CGC-11093",no significant effect
same,subretinal neovascularization vs vehicle,[2],significantly less subretinal neovascularization
same,TUNEL-stained (apoptotic) cells within CNV lesions,[3],many TUNEL-stained cells within CNV lesions; also recorded: several red TUNEL-stained nuclei located within the CNV lesion
